Measured values as given in ChEMBL document CHEMBL1201862, “PubChem BioAssay data set” (2004).
“And” between values parts separate entries of the source, which are not always exact repeats. Equal entries are not always repeated.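 Briefly, cells in 96-well plates were exposed to five compound concentrations for 48 h, and endpoints were estimated by linear interpolation. The concentration for 50% growth inhibition is given as GI50.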 The source made the active and inactive calls. Cut-off read from the data, not from the text of the source: active = GI50 up to about 1.1 µM and inactive = higher.

Key:
Assay in all cases: inhibition of tumour cell growth, NCI panel, 48 h
[1] = system: 786-0
[2] = system: A498
[3] = system: A549
[4] = system: ACHN
[5] = system: CAKI-1
[6] = system: CCRF-CEM
[7] = system: COLO 205
[8] = system: DLD-1
[9] = system: DMS-273
[10] = system: EKVX
[11] = system: HCT-116
[12] = system: HOP-18
[13] = system: HOP-92
[14] = system: IGROV-1
[15] = system: K562
[16] = system: KM-20L2
[17] = system: LXFL 529
[18] = system: M14
[19] = system: MOLT-4
[20] = system: Malme-3M
[21] = system: NCI-H460
[22] = system: NCI-H522
[23] = system: OVCAR-3
[24] = system: OVCAR-4
[25] = system: OVCAR-8
[26] = system: RPMI-8226
[27] = system: RXF 393
[28] = system: RXF 631
[29] = system: SF-295
[30] = system: SF-539
[31] = system: SK-MEL-5
[32] = system: SN12C
[33] = system: SR
[34] = system: SW-620
[35] = system: TK-10
[36] = system: UACC-257
[37] = system: UO-31
[38] = system: HCC 2998
[39] = system: HL-60
[40] = system: HOP-62
[41] = system: HT-29
[42] = system: LOX IMVI
[43] = system: MCF7
[44] = system: NCI-H226
[45] = system: NCI-H23
[46] = system: NCI/ADR-RES
[47] = system: SF-268
[48] = system: SK-MEL-28
[49] = system: SK-MEL-2
[50] = system: SK-OV-3
[51] = system: SNB-19
[52] = system: SNB-75
[53] = system: SNB-78
[54] = system: UACC-62
[55] = system: BT-549
[56] = system: DMS-114
[57] = system: DU-145
[58] = system: HCT-15
[59] = system: Hs-578T
[60] = system: KM12
[61] = system: M19-MEL
[62] = system: MDA-MB-231
[63] = system: MDA-MB-435
[64] = system: MDA-N
[65] = system: OVCAR-5
[66] = system: PC-3
[67] = system: T47D
[68] = system: U-251
[69] = system: XF498

In the case of `CC(C)(C)OC(=O)N1N=NC2C3CC(=O)C(O3)C21` (stereo unspecified), the GI50 [1] is reported as > 100 µM (inactive), the GI50 [2] is reported as > 100 µM (inactive) and the GI50 [3] is reported as > 100 µM (inactive). The GI50 [4] was > 100 µM (inactive), the GI50 [5] was > 100 µM (inactive) and the GI50 [6] was > 100 µM (inactive). The GI50 [7] was > 10 µM (inactive), the GI50 [8] was > 100 µM (inactive) and the GI50 [9] was > 100 µM (inactive). For the same molecule, the GI50 [10] was > 100 µM (inactive), the GI50 [11] was > 10 µM (inactive) and the GI50 [12] was > 100 µM (inactive). For the same molecule, the GI50 [13] was > 100 µM (inactive), the GI50 [14] was > 100 µM (inactive) and the GI50 [15] was > 100 µM (inactive). The GI50 [16] was > 100 µM (inactive), the GI50 [17] was > 100 µM (inactive) and the GI50 [18] was > 100 µM (inactive). The GI50 [19] was > 100 µM (inactive), the GI50 [20] was > 100 µM (inactive) and the GI50 [21] was > 100 µM (inactive). For the same molecule, the GI50 [22] was > 100 µM (inactive), the GI50 [23] was > 100 µM (inactive) and the GI50 [24] was > 10 µM (inactive). For the same molecule, the GI50 [25] was 86.1 µM (inactive), the GI50 [26] was > 100 µM (inactive) and the GI50 [27] was > 100 µM (inactive). The GI50 [28] was > 100 µM (inactive), the GI50 [29] was > 100 µM (inactive) and the GI50 [30] was > 100 µM (inactive). The GI50 [31] was > 100 µM (inactive), the GI50 [32] was > 100 µM (inactive) and the GI50 [33] was > 100 µM (inactive). For the same molecule, the GI50 [34] was > 100 µM (inactive), the GI50 [35] was > 100 µM (inactive) and the GI50 [36] was > 10 µM (inactive). The GI50 [37] was > 100 µM (inactive).

In the case of `NC(=O)C#CC(N)=O`, the GI50 [1] is reported as 29.2 µM (inactive), the GI50 [2] is reported as > 100 µM (inactive) and 53.1 µM (inactive) and the GI50 [3] is reported as 73.3 µM (inactive). For the same molecule, the GI50 [4] was > 100 µM (inactive), the GI50 [6] was 3.08 µM (inactive) and 1.94 µM (inactive) and the GI50 [38] was > 100 µM (inactive) and 58.3 µM (inactive). For the same molecule, the GI50 [39] was 2.52 µM (inactive) and 1.71 µM (inactive), the GI50 [12] was 18.2 µM (inactive) and 28.2 µM (inactive) and the GI50 [40] was > 100 µM (inactive) and 69.2 µM (inactive). For the same molecule, the GI50 [41] was 20.8 µM (inactive) and 41.5 µM (inactive), the GI50 [14] was > 100 µM (inactive) and 67.5 µM (inactive) and the GI50 [15] was 2.91 µM (inactive) and 4.66 µM (inactive). The GI50 [42] was 14.5 µM (inactive) and 18.3 µM (inactive), the GI50 [17] was 64.9 µM (inactive) and the GI50 [18] was 19.2 µM (inactive). The GI50 [43] was 19.3 µM (inactive), the GI50 [20] was 13.1 µM (inactive) and 7.53 µM (inactive) and the GI50 [44] was > 100 µM (inactive) and 63 µM (inactive). The GI50 [45] was 58.5 µM (inactive) and > 91.2 µM (inactive), the GI50 [22] was 21.2 µM (inactive) and 14.2 µM (inactive) and the GI50 [46] was 7.14 µM (inactive). For the same molecule, the GI50 [26] was 2.14 µM (inactive), the GI50 [28] was > 100 µM (inactive) and the GI50 [47] was 60.3 µM (inactive) and 38.9 µM (inactive). For the same molecule, the GI50 [29] was 13.8 µM (inactive) and 25.2 µM (inactive), the GI50 [30] was 24.4 µM (inactive) and 19.5 µM (inactive) and the GI50 [48] was 7.08 µM (inactive) and 14 µM (inactive). The GI50 [49] was 21.9 µM (inactive) and 13.7 µM (inactive), the GI50 [50] was > 100 µM (inactive) and 108 µM (inactive) and the GI50 [51] was > 100 µM (inactive) and 121 µM (inactive). For the same molecule, the GI50 [52] was 30.1 µM (inactive) and 42.2 µM (inactive), the GI50 [53] was 54 µM (inactive) and 47.3 µM (inactive) and the GI50 [33] was 14.6 µM (inactive). The GI50 [35] was 20.8 µM (inactive), the GI50 [54] was 19.4 µM (inactive) and 14.6 µM (inactive) and the GI50 [37] was 24 µM (inactive) and 28.5 µM (inactive).

For `C[N+](C)(C)CC(=O)N/N=C(\C(=O)NC1=C(Cl)C(=O)c2ccccc2C1=O)C(C#N)c1nc(-c2ccc([N+](=O)[O-])cc2)cs1` (stereo unspecified), the GI50 [1] was 8.63 µM (inactive), the GI50 [2] was 16.9 µM (inactive) and the GI50 [3] was 4.54 µM (inactive). For the same molecule, the GI50 [4] was 10.6 µM (inactive), the GI50 [55] was 3.77 µM (inactive) and the GI50 [5] was 26.2 µM (inactive). For the same molecule, the GI50 [6] was 8.28 µM (inactive), the GI50 [7] was 17.2 µM (inactive) and the GI50 [8] was 11.3 µM (inactive). For the same molecule, the GI50 [56] was 3.26 µM (inactive), the GI50 [9] was 9.02 µM (inactive) and the GI50 [57] was 6.08 µM (inactive). For the same molecule, the GI50 [10] was 14.1 µM (inactive), the GI50 [38] was 14.1 µM (inactive) and the GI50 [11] was 5.78 µM (inactive). For the same molecule, the GI50 [58] was 5.36 µM, the GI50 [39] was 5.73 µM (inactive) and the GI50 [12] was 6.4 µM (inactive). For the same molecule, the GI50 [40] was 12.7 µM (inactive), the GI50 [13] was 13 µM (inactive) and the GI50 [41] was 8.38 µM (inactive). The GI50 [59] was 7.85 µM (inactive), the GI50 [14] was 6.71 µM (inactive) and the GI50 [15] was 10.8 µM (inactive). For the same molecule, the GI50 [16] was 14 µM (inactive), the GI50 [60] was 14.6 µM (inactive) and the GI50 [42] was 1.69 µM (inactive). For the same molecule, the GI50 [17] was 7.91 µM (inactive), the GI50 [18] was 3.15 µM (inactive) and the GI50 [61] was 0.889 µM (active). The GI50 [43] was 5.41 µM (inactive), the GI50 [62] was 10.3 µM (inactive) and the GI50 [63] was 1.87 µM (inactive). For the same molecule, the GI50 [64] was 1.74 µM (inactive), the GI50 [19] was 13.4 µM (inactive) and the GI50 [20] was 1.86 µM (inactive). For the same molecule, the GI50 [44] was 11.4 µM (inactive), the GI50 [45] was 2.51 µM (inactive) and the GI50 [21] was 4.31 µM (inactive). The GI50 [22] was 7.31 µM (inactive), the GI50 [46] was 11.7 µM (inactive) and the GI50 [23] was 1.02 µM (active). For the same molecule, the GI50 [24] was 10.1 µM (inactive), the GI50 [65] was 13.1 µM (inactive) and the GI50 [25] was 9.35 µM (inactive). For the same molecule, the GI50 [66] was 6.89 µM (inactive), the GI50 [26] was 6.53 µM (inactive) and the GI50 [27] was 11.2 µM (inactive). The GI50 [47] was 12.3 µM (inactive), the GI50 [29] was 6.37 µM (inactive) and the GI50 [30] was 8.38 µM (inactive). For the same molecule, the GI50 [48] was 6.1 µM (inactive), the GI50 [49] was 4.46 µM (inactive) and the GI50 [31] was 1.13 µM (inactive). For the same molecule, the GI50 [50] was 21.1 µM (inactive), the GI50 [32] was 9.42 µM (inactive) and the GI50 [51] was 12.9 µM (inactive). The GI50 [52] was 7.23 µM (inactive), the GI50 [53] was 11.3 µM (inactive) and the GI50 [33] was 5.62 µM (inactive). The GI50 [34] was 8.15 µM (inactive), the GI50 [67] was 5.85 µM (inactive) and the GI50 [35] was 31 µM (inactive). For the same molecule, the GI50 [68] was 6.97 µM (inactive), the GI50 [36] was 3.18 µM (inactive) and the GI50 [54] was 3.83 µM (inactive). The GI50 [37] was 15.6 µM (inactive) and the GI50 [69] was 9.46 µM (inactive).
